Laboratory results reported in patent US11325913B2, “Compounds and methods for the treatment of malaria” (THE BROAD INSTITUTE, INC., priority 2013, dated 2022).

Legend:
[1] = test system: P. berghei (ANKA GFP-luc) blood stage parasites; test: Single dose in vivo efficacy, P. berghei blood stage, bioluminescence imaging; design: species or system CD-1 mice
Experimental: CD-1 mice (female, 6-7-week-old) were inoculated with 1×10^6 P. berghei (ANKA GFP-luc) blood stage parasites intravenously 24 hours before treatment and compounds were administered as a single 100 or 50 mg/kg dose orally at 0 hour. Parasitemia was monitored by the In vivo Imaging System (IVIS 100, Xenogen; Caliper Life Science) to acquire the bioluminescence signal. Animals with parasitemia exceeding 25% were euthanized.
Infection proceeds rapidly in untreated mice (control), which were euthanized around day 6 of the study. Compound 37 and 68 were tested at different times; thus the artesunate control (ART) is shown for each compound. […] All images are normalized to the same color scale.

[2] = test system: P. falciparum Dd2; test: Activity against the Dd2 strain of P. falciparum (SYBR Green I, 72 h); type: cell-based; conditions: Plasmodium falciparum, DD2, 72 h, P. falciparum Dd2, 72 h incubation
Method in brief: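 Parasites in human RBCs at 1% parasitemia and 1.0% hematocrit, exposed to compounds (0.125% DMSO) for 72 h at 37°C under 93% N2/4% CO2/3% O2. SYBR Green I in saponin/Triton lysis buffer added, 24 h staining, fluorescence read at 485/530 nm. EC50 derived against 20 μM mefloquine background and DMSO baseline.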

[3] = test system: P. berghei strain ANKA; test: In vivo antimalarial activity, mice infected with P. berghei strain ANKA, three daily oral doses; design: species or system NMVRI mice; conditions: 50 mg/kg orally, three consecutive daily doses (24, 48, 72 h after infection), day 4, relative to control group
Experimental: In vivo antimalarial activity for certain compounds of the invention was assessed for groups of three-five female NMVRI mice ([…]) intravenously infected on day 0 with P. berghei strain ANKA (2×10^7 parasitized erythrocytes per ml). In control mice, parasitemia typically rose to ˜40% by day 3 after infection, and control mice died between day 5 and day 7 after infection. Compounds with a dosage of 50 mg/kg were formulated in 7% Tween80/3% ethanol and were administered orally as three consecutive daily doses (24, 48, and 72 h after infection). The blood smears were collected and stained on day 4 after infection. The degree of infection (parasitemia expressed as percent infected erythrocytes) was determined microscopically, with a detection limit of 1 parasite in 10,000 erythrocytes (that is, 0.01%). Activity was calculated as the difference between the mean percent parasitemia for the control and treated groups expressed as a percent relative to the control group. Using this method, a compound of the invention (8R,9R,10S)-10-(hydroxymethyl)-N-(4-methoxyphenyl)-9-(4-(phenylethynyl)phenyl)-1,6-diazabicyclo[6.2.0]decane-6-carboxamide (compound 27) reduced parasitaemia by 57% on day 4. […] Quantification was conducted by comparison to a calibration curve prepared using blank plasma and processed in the same way as the samples.

[4] = test system: P. berghei (ANKA luc-GFP) sporozoites; test: In vivo P. berghei liver stage assay; design: species or system CD-1 mice; conditions: single PO dose
Experimental: CD-1 mice were inoculated (IV) with 1×10^5 P. berghei (ANKA luc-GFP) sporozoites freshly dissected out from A. stephensi and immediately treated with a single dose (PO) of vehicle or compound 37 (25, 5.0, 1.0 or 0.2 mg/kg) at 0 hour. Bioluminescence signals from the transgenic parasites were monitored by the In vivo Imaging System (IVIS 100, Xenogen; Caliper Life Science).
The ED50 for compound 37 in this assay was 1 mg/kg.

[5] = test system: P. berghei (ANKA GFP-luc); test: Prevention of transmission of P. berghei to mosquitoes (oocyst count in midguts); type: in vivo, CD-1 mice / Anopheles stephensi mosquitoes; conditions: single ascending doses (all doses), mosquitoes fed Day 2, midguts dissected Day 9
Experimental: CD-1 mice were infected with P. berghei (ANKA GFP-luc) for 96 hours prior to treatment with vehicle [70% PEG400 and 30% (5% glucose in H2O)] or single ascending doses of compound 37 (Day 0). Average % parasitemia on Day 0 was 2.1%. On Day 2 of the study, mice were anesthetized and female Anopheles stephensi mosquitoes were allowed to feed on the mice for 20 minutes. On Day 9, the midguts of the mosquitoes were dissected out, and oocysts were enumerated microscopically (12.5× magnification, oocysts visible as puncta in the control, FIG. 2, Panel A).

[6] = single oral dose, P. berghei blood stage

Row | Structure (SMILES) | EC50 [2] [nM] | also measured
1 | C[C@H]1[C@H](OC(=O)CCC(=O)O)O[C@@H]2O[C@@]3(C)CC[C@H]4[C@H](C)CC[C@@H]1[C@@]24OO3 [ART, artesunate, reference compound] | – | effect on parasites ([1]; single 100 mg/kg dose): rapid suppression of parasites, but, due to its short half-life, the parasites re-emerge quickly
2 | COc1ccc(NC(=O)N2CCCCN3[C@H](CN)[C@H](c4ccc(C#Cc5ccccc5)cc4)[C@@H]3C2)cc1 [Compound 37, (8R,9S,10S)-10-(aminomethyl)-N-(4-methoxyphenyl)-9-[4-(2-phenylethynyl)phenyl]-1,6-diazabicyclo[6.2.0] decane-6-carboxamide] | 148 | time parasitemia repressed ([1]; single 100 mg/kg oral dose): about 1 week; ED25 [1, 6]: 100 mg/kg; ED50 ([4]; Plasmodium berghei, in Mus musculus, liver stage): 1 mg/kg; parasitemia after sporozoite inoculation ([4]; dosed at ≥5 mg/kg): remained parasite free; oocysts in mosquito midguts [5]: no detectable oocysts
3 | COc1ccc(NC(=O)N2CCCCN3[C@H](CN(C)C)[C@H](c4ccc(C#Cc5ccccc5)cc4)[C@@H]3C2)cc1 [Compound 68, (8R,9S,10S)-10-[(dimethylamino)methyl]-N-(4-methoxyphenyl)-9-[4-(2-phenylethynyl)phenyl]-1,6-diazabicyclo[6.2.0] decane-6-carboxamide] | 3 | cure of the infected animals ([1]; single 50 mg/kg oral dose): 100%; ED100 [1, 6]: ≤ 50 mg/kg
4 | COC(=O)CCOC[C@@H]1[C@H](c2ccc(C#Cc3ccccc3)cc2)[C@@H]2CN(C(=O)Nc3ccc(OC)cc3)CCCCN12 [Compound 87, methyl 3-(((8R,9R,10S)-6-((4-methoxyphenyl)carbamoyl)-9-(4-(phenylethynyl)phenyl)-1,6-diazabicyclo[6.2.0]decan-10-yl)methoxy)propanoate] | 1 | –
5 | CNC[C@H]1[C@H](c2ccc(C#Cc3ccccc3)cc2)[C@@H]2CN(C(=O)Nc3ccc(OC)cc3)CCCCN12 [Compound 88, (8R,9S,10R)-N-(4-methoxyphenyl)-10-((methylamino)methyl)-9-(4-(phenylethynyl)phenyl)-1,6-diazabicyclo[6.2.0] decane-6-carboxamide] | 25 | –
6 | COc1ccc(NC(=O)N2CCCCN3[C@H](CNCC(F)(F)F)[C@H](c4ccc(C#Cc5ccccc5)cc4)[C@@H]3C2)cc1 [Compound 90, (8R,9S,10S)-N-(4-methoxyphenyl)-9-(4-(phenylethynyl)phenyl)-10-(((2,2,2-trifluoroethyl)amino)methyl)-1,6-diazabicyclo[6.2.0] decane-6-carboxamide] | 228 | –
7 | COc1ccc(NC(=O)N2CCCCN3[C@@H](COCCC(=O)N4CCOCC4)[C@H](c4ccc(C#Cc5ccccc5)cc4)[C@@H]3C2)cc1 [Compound 91, (8R,9R,10R)-N-(4-methoxyphenyl)-10-((3-morpholino-3-oxopropoxy)methyl)-9-(4-(phenylethynyl)phenyl)-1,6-diazabicyclo[6.2.0] decane-6-carboxamide] | 14 | –
8 | N#Cc1ccc(NC(=O)N2CCCCN3[C@H](CO)[C@H](c4ccc(C#Cc5ccccc5)cc4)[C@@H]3C2)cc1 [Compound 93, (8R,9R,10S)-N-(4-cyanophenyl)-10-(hydroxymethyl)-9-(4-(phenylethynyl)phenyl)-1,6-diazabicyclo[6.2.0] decane-6-carboxamide] | 138 | –
9 | CCN(CC)C[C@@H]1[C@H](c2ccc(C#Cc3ccccc3)cc2)[C@@H]2CN(C(=O)Nc3ccc(OC)cc3)CCCCN12 [Compound 94, (8R,9S,10S)-10-((diethylamino)methyl)-N-(4-methoxyphenyl)-9-(4-(phenylethynyl)phenyl)-1,6-diazabicyclo[6.2.0] decane-6-carboxamide] | 14 | –

More lines, main results first:

Row | EC50 [2] [nM] | Structure (SMILES) | also measured
10 | 4 | COc1ccc(NC(=O)N2CCCCN3[C@H](CO)[C@H](c4ccc(C#Cc5ccccc5)cc4)[C@@H]3C2)cc1 [Compound 27, (8R,9R,10S)-10-(hydroxymethyl)-N-(4-methoxyphenyl)-9-(4-(phenylethynyl)phenyl)-1,6-diazabicyclo[6.2.0] decane-6-carboxamide] | reduction of parasitaemia [3]: 57%
11 | 0.4 | COc1ccc(NC(=O)N2CCCCN3[C@@H](COCC(=O)O)[C@H](c4ccc(C#Cc5ccccc5)cc4)[C@@H]3C2)cc1 [Compound 85, 2-(((8R,9R,10R)-6-((4-methoxyphenyl)carbamoyl)-9-(4-(phenylethynyl)phenyl)-1,6-diazabicyclo[6.2.0]decan-10-yl)methoxy)acetic acid] | –
12 | 2 | COc1ccc(NC(=O)N2CCCCN3[C@@H](COCCC(=O)O)[C@H](c4ccc(C#Cc5ccccc5)cc4)[C@@H]3C2)cc1 [Compound 86, 3-(((8R,9R,10R)-6-((4-methoxyphenyl)carbamoyl)-9-(4-(phenylethynyl)phenyl)-1,6-diazabicyclo[6.2.0]decan-10-yl)methoxy)propanoic acid] | –
13 | 8 | COc1ccc(NC(=O)N2CCCCN3[C@H](COCCC(=O)N4CCOCC4)[C@H](c4ccc(C#Cc5ccccc5)cc4)[C@@H]3C2)cc1 [Compound 89, (8R,9R,10S)-N-(4-methoxyphenyl)-10-((3-morpholino-3-oxopropoxy)methyl)-9-(4-(phenylethynyl)phenyl)-1,6-diazabicyclo[6.2.0] decane-6-carboxamide] | –
14 | 108 | COc1ccc(NC(=O)N2CCCCN3[C@@H](CN(C)C)[C@H](c4ccc(C#Cc5ccccc5)cc4)[C@@H]3C2)cc1 [Compound 92, (8R,95S,10R)-10-((dimethylamino)methyl)-N-(4-methoxyphenyl)-9-(4-(phenylethynyl)phenyl)-1,6-diazabicyclo[6.2.0] decane-6-carboxamide] | –
15 | 5000 | COc1ccc(NC(=O)N(C)C[C@H]2[C@@H](c3ccc(C#Cc4ccccc4)cc3)[C@@H](CO)N2C)cc1 [Compound 95, 1-(((2R,3R,4S)-4-(hydroxymethyl)-1-methyl-3-(4-(phenylethynyl)phenyl)azetidin-2-yl)methyl)-3-(4-methoxyphenyl)-1-methylurea] | –
